For 27 compounds, TGI and GI50 results are on record in PubChem BioAssay (NCI).

What all share (assay): NCI tumour cell line growth inhibition, 48 h
Assay [1] concerns HCT-116 colon.
The subject of assay [2] is HCT-15 colon.
Assay [3] relates to HS 578T breast.
Assay [4] has as its system KM12 colon.
In assay [5] the test system is LOX IMVI melanoma.
The subject of assay [6] is NCI/ADR-RES ovarian.
In assay [7] the test system is SK-MEL-2 melanoma.
Assay [8] deals with TK-10 renal.
Assay [9] deals with UACC-62 melanoma.
Assay [10] relates to SF-295 CNS.

“And” between values parts separate entries of the source, which are not always exact repeats. Identical values can stand only once.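 Growth conditions: 96-well plates. Treatment: test compound, 48 hours, 5 concentrations. Analysis: linear interpolation between bracketing concentrations; unreached endpoints set to highest concentration. GI50 marks 50% less growth. TGI marks complete inhibition of growth.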

Consider `Cc1cc2ccccc2n1CC(=O)N1CCCC1`, for which the TGI in [1], in [2], in assay [3], in assay [4], in assay [5] and in [6] was more than 100 µM in each case. Further, the TGI in [7], in assay [8] and in [9] was more than 100 µM throughout.
On to `Cc1ccc(C)c(COCCOCn2cc(Br)c(N)nc2=O)c1`, for which the TGI in [1], in assay [2], in [3], in [4], in assay [5] and in [6] was more than 100 µM each time. Moreover, the TGI in assay [10], in assay [7], in assay [8] and in assay [9] was more than 100 µM each time.
Consider `O=C(NC1(C(=O)NNc2nnc(-c3ccccc3)c(-c3ccccc3)n2)C(c2ccccc2)C(c2ccccc2)=NN1c1ccccc1)c1ccccc1` (centres undefined), for which the TGI in assay [1], in assay [2], in assay [3], in [4], in [6] and in assay [10] was more than 100 µM in each case. Moreover, the TGI in assay [7], in assay [8] and in [9] was more than 100 µM each time.
With `CCOC(=O)c1c2c(n(-c3ccc(OC)cc3)c1C)C(=O)C(=O)c1ccccc1-2`, the TGI in assay [1] was 3 µM; in assay [2], 8.13 µM; in assay [3], 6.32 µM; in [4], 3.61 µM; in [5], 2.49 µM; in assay [6], 2.01 µM. Also, the TGI in [10] was 3.17 µM; in assay [7], more than 21.8 µM; in [8], 3.33 µM; in assay [9] it was 3.28 µM.
For the compound `O=c1c2ccccc2n2nnc3ccc(NCCCNCCNCCCNc4ccc5nnn6c7ccccc7c(=O)c4c56)c1c32`, the TGI in assay [1] is more than 38.5 µM; in [2] it was more than 26.4 µM; in assay [3] it was 37.6 µM; in assay [4], more than 22.5 µM; in assay [5], 24 µM; in [6], more than 25.5 µM. The TGI in assay [10] is more than 27.5 µM; in [7], more than 50 µM; in assay [8] it was 19 µM; in assay [9], more than 50 µM.
Consider `COc1ccc(/C=C(\C(=C/c2ccc(OC)cc2)[N+](=O)[O-])[N+](=O)[O-])cc1`, for which the TGI was 24.8 µM in assay [1]; 6.18 µM in [2]; 43.9 µM in [3]; 36.2 µM in [4]; 5 µM in [5]; 7.94 µM in assay [6]. Besides, the TGI in assay [10] was determined as 30.2 µM; in [7], 39.7 µM; in [8] it was 12.2 µM; in [9], 9.38 µM.
Turning to `O=C1CCC2(CC1CCSc1ccccc1)OCCO2` (centres undefined), the TGI in assay [2], in [3], in assay [4], in assay [5], in assay [6] and in assay [10] was more than 100 µM each time. The TGI in [7], in assay [8] and in assay [9] was more than 100 µM throughout.
`S=c1nc2[nH]c3ccc(Br)cc3c2n[nH]1`: the TGI was more than 100 µM in assay [1]; more than 100 µM in assay [2]; more than 100 µM in assay [3]; more than 100 µM in [4]; 79.7 µM in assay [5]; more than 100 µM in assay [6]. The figures for the TGI in assay [7], in assay [8] and in assay [9] were 90 µM, more than 100 µM and more than 100 µM, respectively.
For the compound `CN1C/C(=C\c2ccc(Cl)cc2)C(=O)/C(=C/c2ccc(Cl)cc2)C1`, the TGI in assay [1] is 0.482 µM; in assay [3] it was more than 100 µM; in assay [4] it was 2.39 µM; in assay [5] it was 0.612 µM; in assay [6], more than 22.5 µM; in assay [10] it was 2.07 µM. Also, the TGI is more than 100 µM in assay [7], more than 100 µM in [8] and 8.35 µM in assay [9].
Regarding `C=CC(C)(C)N[C@@H](C(=O)N1CCC[C@H]1c1nc(-c2nc(C(=O)OCC=C(C)C)c(C)o2)c(C)o1)C(C)C`, the TGI in [1] was 38.6 µM; in assay [2] it was 51.5 µM; in assay [3], 40.2 µM; in assay [4] it was 60.3 µM; in assay [5], more than 100 µM; in [6], 59 µM. Further, the TGI in [10] is 42.8 µM; in assay [7], 73.5 µM; in assay [8], 63.2 µM; in assay [9], 38.6 µM.
Take `Cc1cn(CC2=NCCCN2)c(=O)[nH]c1=O`: the TGI in [1], in assay [2], in assay [3], in assay [5], in assay [6] and in assay [10] was more than 100 µM in each case. For the same compound, the TGI in assay [7], in [8] and in [9] was more than 100 µM each time.
`Cn1c(-c2ccc[se]2)ccc1-c1ccc(CO)[se]1`: the TGI was more than 100 µM in assay [1]; more than 63.8 µM in assay [2]; more than 100 µM in assay [3]; more than 100 µM in [4]; more than 64.1 µM in assay [5]; 52.2 µM in [6]. The TGI in [10], in assay [7] and in [9] was more than 100 µM each time.
On to `CC1(C)[C@@H](Cn2cnc3c(=O)[nH]c(N)nc32)CC[C@@]1(C)CO`, for which the TGI in [1], in assay [2], in [3], in assay [4], in assay [5] and in assay [6] was more than 100 µM each time. In addition, the TGI in [10], in assay [7], in assay [8] and in assay [9] was more than 100 µM throughout.
For `CCCn1c(=O)c2ccccc2[n+]2c(-c3ccc([N+](=O)[O-])cc3)csc12`, the TGI is more than 100 µM in [1]; more than 100 µM in assay [2]; more than 100 µM in assay [3]; 78.3 µM in [4]; 51.3 µM in assay [5]; 36.5 µM in [6]. For the same compound, the TGI in assay [10], in assay [7] and in assay [9] was more than 100 µM in each case.
On to `C=C(CC(=O)Nc1ccc(C(=O)OC)o1)C(=O)OC`, for which the TGI is 76.7 µM in assay [1]; 59.1 µM in assay [2]; more than 100 µM in assay [3]; 42.5 µM in assay [4]; more than 100 µM in [5]; more than 100 µM in [6]. Also, the TGI is more than 100 µM in assay [10], 46.7 µM in assay [7], 46.1 µM in assay [8] and 72.4 µM in [9].
Consider `CC1(C)CN(c2ccccc2)C(=O)C1OC(=O)[C@@]1(C)C[C@@H]2C=C[C@H]1C2` (some centres undefined), for which the TGI in assay [1] turned out to be 35.8 µM; in assay [2], 55.1 µM; in [3], 54.7 µM; in assay [4], 45.2 µM; in [5], 40.3 µM; in [6], 52.2 µM. Also, the TGI in [10] was 46.7 µM; in [7], 35.4 µM; in assay [8], 64.7 µM; in [9], 41.4 µM.
Consider `O=C(Nc1nnc(-c2ccccc2)o1)C(SC(=S)N1CCOCC1)c1ccccc1` (centres undefined), for which the TGI was more than 100 µM in assay [1]; more than 100 µM in assay [2]; more than 100 µM in assay [3]; more than 100 µM in assay [4]; more than 100 µM in assay [5]; 64.7 µM in [6]. The TGI in assay [10], in assay [7] and in assay [8] was more than 100 µM each time.
Turning to `CC(=Nc1c2ccccc2nc2ccccc12)N(C)C`, the TGI was 27.6 µM in assay [1]; more than 100 µM in assay [2]; 69.8 µM in assay [3]; 26.7 µM in assay [5]; 54.8 µM in assay [6]; more than 100 µM in assay [10]. In addition, the TGI is 46 µM in assay [7], more than 100 µM in [8] and 32.9 µM in [9].
Turning to `CCN(CC)C(=S)N/N=C/c1ccccn1`, the TGI was more than 100 µM in assay [2]; more than 100 µM in [3]; more than 100 µM in assay [4]; 0.27 µM in assay [5]; 0.692 µM in [6]; more than 77.1 µM in assay [10]. Further, the results for the TGI in assay [7] and in assay [9] were more than 100 µM and 0.392 µM, respectively.
As to `O=C(OCCN1CCCCC1)C(c1ccccc1)C1(O)CCSCC1` (centres undefined), the TGI in [1], in assay [2], in assay [3], in [4], in assay [5] and in [6] was more than 100 µM in each case. In addition, the TGI in assay [10], in [7], in [8] and in assay [9] was more than 100 µM in each case.
In the case of `O=C(Nc1c(Cl)cc([N+](=O)[O-])cc1Cl)C(=O)C1C(=O)NC(=S)NC1=O`, the TGI in assay [1], in [2], in assay [3], in [4], in assay [5] and in assay [6] was more than 100 µM throughout. In addition, the TGI in assay [10], in [7], in assay [8] and in [9] was more than 100 µM throughout.
For `OCC(O)C1OC2CC1Nc1ccccc1N2` (centres undefined), the TGI in assay [1], in assay [2], in assay [3], in assay [4], in [5] and in assay [6] was more than 100 µM in each case. Moreover, the TGI in assay [10], in assay [7], in assay [8] and in assay [9] was more than 100 µM throughout.
Take `CCCC(CC)c1c(O)c(O)c(C(CC)CCC)c(C(CC)CCC)c1C(CC)CCC` (centres undefined): the TGI in assay [1], in assay [2], in assay [3], in assay [4], in assay [5] and in assay [6] was more than 10 µM throughout. Further, the TGI in assay [10], in assay [7], in assay [8] and in [9] was more than 10 µM in each case.
Take `Cc1ccc(NC(=S)Nc2c(C)n(C)n(-c3ccccc3)c2=O)cc1`: the TGI in assay [1], in assay [2], in [3], in [4], in assay [5] and in assay [6] was more than 100 µM in each case. Moreover, the TGI in assay [10], in [8] and in assay [9] was more than 100 µM throughout.
On to `O=C1CCCC2=C1C(c1ccc3c(c1)OCO3)Nc1ccc3ccccc3c12` (centres undefined), for which the TGI in [1], in [2], in assay [3], in assay [4], in assay [6] and in assay [10] was more than 100 µM throughout. In addition, the TGI in assay [7], in [8] and in assay [9] was more than 100 µM each time.
As to `Nc1ccccc1NC(=O)CCCCCCC(=O)Nc1ccc2c(c1)/C(=C/c1ccc[nH]1)C(=O)N2`, the GI50 was 6.13 µM in [1]; more than 100 µM in assay [2]; 47.6 µM in assay [3]; 1.45 µM in [4]; more than 100 µM in [5]; more than 100 µM in assay [6]. The GI50 was more than 100 µM in assay [10], 5.73 µM in assay [7] and more than 100 µM in assay [9]. Also, the TGI in [1], in [2], in [3], in assay [4], in assay [5] and in [6] was more than 100 µM in each case. For the same compound, the TGI in [10], in assay [7] and in [9] was more than 100 µM throughout.
`CN(C)CCCNc1c2ccccc2nc2cccc([N+](=O)[O-])c12`: the TGI in [1] was 0.0132 µM and 0.0316 µM; in [2], 0.00142 µM; in assay [3], 0.0148 µM; in assay [6], 0.186 µM; in assay [10], 0.0167 µM and 0.0867 µM; in [7], 0.00221 µM. The TGI in assay [8] was 0.00909 µM and 0.0869 µM. Moreover, the GI50 in [5] was 0.019 µM; in assay [10] it was less than 0.001 µM; in assay [8] it was 0.0203 µM.
